Laboratory results taken from patent publication US11298367B2, “Prodrugs of substituted triazole derivatives and uses thereof” (Bayer Aktiengesellschaft, priority 2017, dated 2022).

Assays:
Format in all cases: cell-based
human V2 receptor = molecular target: T1, human V2 receptor (Homo sapiens, UniProt P30518); assay: Cellular in vitro assay for vasopressin receptor activity (V2, CRE-luciferase); details: CHO cell line with human V2 receptor, [Arg8]-vasopressin at EC50; values are for the prodrug as such; read-out: IC50 hV2
T1 construct: expressed in transfected cells; host or cells: CHO K1 cells expressing firefly luciferase under a CRE-responsive promoter
Description: B-1. Cellular In Vitro Assay for Determining Vasopressin Receptor Activity
The identification of agonists and antagonists of the V1a and V2 vasopressin receptors from humans, rats and dogs as well as the quantification of the activity of the compounds of the invention is carried out using recombinant cell lines. These cell lines originally derive from a hamster's ovary epithelial cell (Chinese Hamster Ovary, CHO K1, ATCC: American Type Culture Collection, Manassas, Va. 20108, USA). The test cell lines constitutively express the human, rat or dog V1a or V2 receptors. In case of the Gaq-coupled V1a receptors, cells are also stably transfected with a modified form of the calcium-sensitive photoproteins aequorin (human and rat V1a) or obelin (dog V1a), which, after reconstitution with the cofactor coelenterazine, emit light when there are increases in free calcium concentrations [Rizzuto R, Simpson A W, Brini M, Pozzan T, Nature 358, 325-327 (1992); Illarionov B A, Bondar V S, Illarionova V A, Vysotski E S, Gene 153 (2), 273-274 (1995)]. The resulting vasopressin receptor cells react to stimulation of the recombinantly expressed Via receptors by intracellular release of calcium ions, which can be quantified by the resulting photoprotein luminescence. The Gs-coupled V2 receptors are stably transfected into cell lines expressing the gene for firefly luciferase under control of a CRE-responsible promoter. Activation of V2 receptors induces the activation of the CRE-responsive promoter via cAMP increase, thereby inducing the expression of firefly luciferase. The light emitted by photoproteins of V1a cell lines as well as the light emitted by firefly luciferase of V2 cell lines corresponds to the activation or inhibition of the respective vasopressin receptor. The bioluminescence of the cell lines is detected using a suitable luminometer [Milligan G, Marshall F, Rees S, Trends in Pharmacological Sciences 17, 235-237 (1996)].
Vasopressin V2 Receptor Cell Lines:
On the day before the assay, the cells are plated out in culture medium (DMEM/F12, 2% FCS, 2 mM glutamine, 10 mM HEPES) in 384-well microtiter plates and kept in a cell incubator (96% humidity, 5% v/v CO2, 37C). On the day of the assay, test compounds in various concentrations and the agonist [Arg^8]-vasopressin at EC50 concentration are added together to the wells, and plates are incubated for 3 hours in a cell incubator. Upon addition of the cell lysis reagent Triton™ and the substrate luciferin, luminescence of firefly luciferase is measured in a luminometer.
Table 1A below lists individual IC50 values for the compounds of the invention (including racemic mixtures as well as separated enantiomers) that were obtained from cell lines transfected with the human V1a or V2 receptor. This means these IC50 values are the values for the prodrug and not for the underlying respective drug as the prodrug is mainly stable under the assay conditions.

human V1a receptor [1] = molecular target: T2, human V1a receptor (Homo sapiens, UniProt P37288); assay: Cellular in vitro assay for verification of prodrug conversion into drug (with/without alkaline phosphatase); details: human V1a CHO cells
T2 construct: expressed in transfected cells; host or cells: CHO K1 (Chinese hamster ovary), also stably transfected with a modified aequorin
Description: B-4. Cellular In Vitro Assay for Verification of Prodrug Conversion into Drug
To verify the conversion of prodrugs into the respective drugs, the prodrugs are incubated with and without alkaline phosphatase. Cleavage of the phosphate moiety by alkaline phosphatase converts the prodrug into the underlying respective drug [Coleman J. E., Annu. Rev. Biophys. Biomol. Struct. 1992, 21, 441-483]. As prodrug and underlying respective drug show different IC50 values, the value of the prodrug after alkaline phosphatase treatment resembles the IC50 of the respective drug. The determination of IC50 values of compounds of the invention at the human V1a receptor is carried out using a recombinant cell line. The cell line originally derives from a hamster's ovary epithelial cell (Chinese Hamster Ovary, CHO K1, ATCC: American Type Culture Collection, Manassas, Va. 20108, USA). The test cell line constitutively expresses the human V1a receptor. Cells are also stably transfected with a modified form of the calcium-sensitive photoprotein aequorin which, after reconstitution with the cofactor coelenterazine, emits light upon increase in free calcium concentration [Rizzuto R, Simpson A W, Brini M, Pozzan T, Nature 358, 325-327 (1992); Illarionov B A, Bondar V S, Illarionova V A, Vysotski E S, Gene 153 (2), 273-274 (1995)]. The resulting vasopressin receptor cell reacts to stimulation of the recombinantly expressed V1a receptor by intracellular release of calcium ions, which can be quantified by the resulting luminescence of photoprotein. The bioluminescence of the cell line is detected using a suitable luminometer [Milligan G, Marshall F, Rees S, Trends in Pharmacological Sciences 17, 235-237 (1996)].
On the day before the assay, the cells are seeded in culture medium (DMEM/F12, 2% FCS, 2 mM glutamine, 10 mM HEPES, 5 μg/ml coelenterazine) in 384-well microtiter plates and kept in a cell incubator (96% humidity, 5% v/v CO2, 37C). On the day of the assay, 100 μl of test compounds at a concentration of 100 μM are incubated for 15 minutes with 500 units alkaline phosphatase at 37° C. in tyrode buffer (20 mM HEPES, 130 mM NaCl, 5 mM KCl, 5 mM NaHCO3, 2 mM MgCl2, pH 7,4). After incubation compounds are immediately diluted and placed for 10 minutes at 37° C. on the before seeded V1a cells. For detection of antagonistic activity of the compounds [Arg^8]-vasopressin at EC50 concentration is added and the resulting light signal is measured immediately in a luminometer.

human V1a receptor [2] = molecular target: T2, human V1a receptor; assay: Cellular in vitro assay for vasopressin receptor activity (V1a, aequorin luminescence); details: for IC50: CHO cell line with human V1a receptor, [Arg8]-vasopressin at EC50, values are for the prodrug as such, read-out: IC50 hV1a; for ratio IC50 hV2/hV1a: selectivity ratio hV2/hV1a
[3] = pre-incubation 15 min with 500 units alkaline phosphatase at 37° C., read-out: IC50 with AP
[4] = without alkaline phosphatase, read-out: IC50 without AP

T1 sequence (P30518 whole entry): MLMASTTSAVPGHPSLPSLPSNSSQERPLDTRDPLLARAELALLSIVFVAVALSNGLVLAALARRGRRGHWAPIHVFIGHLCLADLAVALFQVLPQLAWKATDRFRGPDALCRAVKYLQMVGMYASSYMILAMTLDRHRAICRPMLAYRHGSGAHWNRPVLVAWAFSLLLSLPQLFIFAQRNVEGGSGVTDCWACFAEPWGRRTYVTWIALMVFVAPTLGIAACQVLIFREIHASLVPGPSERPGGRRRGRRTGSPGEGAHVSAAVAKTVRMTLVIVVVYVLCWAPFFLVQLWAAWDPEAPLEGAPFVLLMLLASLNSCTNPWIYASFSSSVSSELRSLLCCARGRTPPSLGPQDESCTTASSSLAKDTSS
T2 sequence (P37288 whole entry): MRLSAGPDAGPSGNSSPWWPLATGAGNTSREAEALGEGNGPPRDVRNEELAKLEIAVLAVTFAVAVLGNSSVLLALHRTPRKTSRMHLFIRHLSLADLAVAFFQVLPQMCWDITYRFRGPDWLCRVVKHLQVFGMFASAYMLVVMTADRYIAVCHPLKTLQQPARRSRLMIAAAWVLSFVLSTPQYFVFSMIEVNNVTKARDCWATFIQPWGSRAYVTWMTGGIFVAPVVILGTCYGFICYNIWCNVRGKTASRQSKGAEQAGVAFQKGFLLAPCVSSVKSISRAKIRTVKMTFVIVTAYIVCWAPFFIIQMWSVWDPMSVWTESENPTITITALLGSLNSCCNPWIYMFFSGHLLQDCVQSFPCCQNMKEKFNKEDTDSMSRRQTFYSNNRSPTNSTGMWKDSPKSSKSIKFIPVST

SMILES | IC50 (human V2 receptor) [nM] | IC50 (human V1a receptor [1]; [3]) [nM] | IC50 (human V1a receptor [1]; [4]) [nM] | IC50 (human V1a receptor [2]) [nM] | ratio IC50 hV2/hV1a (human V1a receptor [2])
NC(=O)c1nc(Cn2nc(-c3ccc(Cl)cc3)n(C[C@H](OP(=O)(O)O)C(F)(F)F)c2=O)nn1-c1ncccc1C(F)(F)F [Example 1, (2S)-3-[1-({5-Carbamoyl-1-[3-(trifluoromethyl)pyridin-2-yl]-1H-1,2,4-triazol-3-yl}methyl)-3-(4-chlorophenyl)-5-oxo-1,5-dihydro-4H-1,2,4-triazol-4-yl]-1,1,1-trifluoropropan-2-yl Dihydrogen Phosphate] | 193 | 1.45 | 13.1 | 15.7 | 12.3
NC(=O)c1nc(Cn2nc(-c3ccc(Cl)cc3)n(C[C@H](O)C(F)(F)F)c2=O)nn1-c1ncccc1C(F)(F)F [Example 4A, 3-({3-(4-Chlorophenyl)-5-oxo-4-[(2S)-3,3,3-trifluoro-2-hydroxypropyl]-4,5-dihydro-1H-1,2,4-triazol-1-yl}methyl)-1-[3-(trifluoromethyl)pyridin-2-yl]-1H-1,2,4-triazole-5-carboxamide] |  | 1.35 | 1.25 |  | 141.0
NC(=O)c1nc(Cn2nc(-c3ccc(Cl)cc3)n(C[C@H](OP(=O)(O)O)C(F)(F)F)c2=O)nn1-c1ccccc1C(F)(F)F [Example 10, (2S)-3-[1-({5-Carbamoyl-1-[2-(trifluoromethyl)phenyl]-1H-1,2,4-triazol-3-yl}methyl)-3-(4-chlorophenyl)-5-oxo-1,5-dihydro-4H-1,2,4-triazol-4-yl]-1,1,1-trifluoropropan-2-yl Dihydrogen Phosphate] | 47 | 1.3 | 11 | 10.6 | 4.4
NC(=O)c1nc(Cn2nc(-c3ccc(Cl)cc3)n(C[C@H](OP(=O)(O)O)C(F)(F)F)c2=O)nn1-c1ncccc1Cl [Example 17, (2S)-3-[1-{[5-Carbamoyl-1-(3-chloropyridin-2-yl)-1H-1,2,4-triazol-3-yl]methyl}-3-(4-chloro-phenyl)-5-oxo-1,5-dihydro-4H-1,2,4-triazol-4-yl]-1,1,1-trifluoropropan-2-yl Dihydrogen Phosphate] | 130 | 1.03 | 9.45 | 9.8 | 13.3
